Data as given in PMC10266688 (PLOS ONE, 2023).

How the values were obtained:
[1] = system: SKOV3 cells; test: MTT cytotoxicity assay, SKOV3 cells, 72 h; assay type: cell-based; conditions: Homo sapiens, SK-OV-3; 72 h treatment
[2] = biological target: T1, RPN13 (Homo sapiens, UniProt Q16186); test: Cellular Thermal Shift Assay (CETSA), SKOV3 cells; assay type: binding; conditions: SKOV3, 10 μM, 30 min, vs DMSO
T1 construct: endogenous in cells; host or cells: SKOV3 cells
Method: Cells were incubated in a thermal cycler (Biorad IQ5 Cycler) over a gradient of temperatures for 4 min, followed by incubation at 25°C for 3 min, then snap-frozen in liquid nitrogen and subjected to three freeze–thaw cycles. Samples were briefly vortexed and centrifuged at 16,000 x g for 20 min at 4°C. Cleared cell lysates were resolved in SDS–PAGE followed by immunoblotting for RPN13, GAPDH, RPN2 and USP14.
Cellular Thermal Shift Assay (CETSA) assesses thermal stabilization of proteins upon ligand binding and is used extensively to detect drug interactions by implementing a thermal shift in the cellular context. The assay involves drug treatment of cells, heating to denature and precipitate proteins in a thermocycler with a specified gradient of temperatures, cell lysis by freeze/thaw cycles, and the separation of cell debris and aggregates from the soluble protein fraction by centrifugation. Whereas unbound proteins denature and precipitate at elevated temperatures, ligand-bound proteins remain in solution. The proportion of individual proteins remaining in solution can be detected by quantitative Western blotting. […]. There was no impact on other control proteins tested, including a house keeping protein (GAPDH) and proteasome subunits (RPN2 and USP14). […]
Resuspended cells were aliquoted into PCR strips. […]

[3] = Plasma stability, mouse EDTA plasma; assay type: in vitro ADME; conditions: for % Drug Remaining, Plasma (Mouse EDTA): 10 μM, 37°C
[4] = Plasma stability, human EDTA plasma; assay type: in vitro ADME; conditions: for % Drug Remaining, Plasma (Human EDTA): 10 μM, 37°C
[5] = Microsomal stability, mouse liver microsomes; assay type: in vitro ADME; conditions: for % Drug Remaining NADPH Neg, Mouse Liver Microsomes / % Drug Remaining NADPH Pos, Mouse Liver Microsomes: 10 μM
Method: An incubation mixture with, and without NADPH-generating system, as well as a neat solution prepared without microsomes and NADPH-generating system was used. […] All reactions were initiated with the addition of Up284. Incubations were performed in glass tubes maintained at 37°C in a shaker bath. At 0, 30, and 60 minutes, 10 μL samples were withdrawn from the reaction mixture, and 0.5 mL of acetonitrile containing internal standard was added to each. Samples were vortex-mixed and subjected to centrifugation for 5 min at 1430 x g. A 10 μL aliquot of the supernatant was injected onto the LC-MS/MS instrument for qualitative analysis using a temperature-controlled autosampling device operating at 5°C.

[6] = system: ES2-luc human ovarian tumor; test: ES2-luc xenograft model, nude mice; assay type: in vivo, mouse; conditions: 10 mg/kg IP every 3 days
Method: Female Nude mice were inoculated IP with 1x10^6 ES2-luc in 100 μL PBS. At day 3, mice were imaged for basal level luminescence activity with a Xenogen IVIS 200 after IP injection with luciferin (0.3 mg in 100 μL water). Mice were randomized into groups and treated IP with compounds or vehicle (25% (w/v) β-Hydroxypropylcyclodextrin in water), and imaged again on days indicated.
Briefly mice were injected IP with ES2-luc cells, as ovarian cancer primarily spreads through the peritoneum, and it is the origin of primary peritoneal cancer. After four days, these mice were injected IP with luciferin and bioluminescence imaged by IVIS imager as a surrogate of tumor burden. […] Bioluminescent imaging was performed by IVIS 12 and 21 days later.
(§1) A-C) Female nude mice were inoculated IP with ES2-luc cells, a human ovarian cancer line expressing luciferase. […] The IP tumor tissue and electroporated normal muscle tissue, being spatially distinct, were identified with separate regions of interest (ROI) after simultaneous imaging with IVIS.

[7] = system: peritoneal/ovarian tumor (shp53, AKT, c-Myc); test: Spontaneous genetically-engineered mouse model (GEMM) of ovarian cancer; assay type: in vivo; conditions: C57BL/6, 20mg/kg IP every 3 days for 6 weeks
Method: To induce IP tumor formation in immunocompetent mice, oncogenes (shp53, AKT, c-Myc), luciferase and the Sleeping Beauty (SB) transposase (10 μg/plasmid) were diluted in 500 μL of PBS and injected IP into female C57BL/6 mice. The mice were anesthetized by intramuscular injection of ketamine. The plasmid-injected mice were electroporated (EP) by the BTX ECM 830 square wave EP generator (BTX) (5 pulses, 200 V for 100 ms/pulse, 100 ms intervals between each pulse), the caliper electrode (BTX) was held on the waist of mouse. The mice were followed by IVIS imaging weekly for tracking tumor growth. The mice were sacrificed when the bioluminescence signal reached 10^9 photons/sec/cm^2/sr, or had enlarged abdomens due to the production of ascites, or had health conditions and/or criteria under which early euthanasia was required by the protocol (see above). To track peritoneal tumor growth, bioluminescence imaging was performed by the IVIS spectrum2000 (PerkinElmer) as the plasmid expressing SB transposase also produces luciferase. Briefly, the mice were injected IP with D-luciferin (GoldBio). After 10 min, the mice were anesthetized with isoflurane, and imaged by the IVIS Spectrum under the auto exposure mode. Bioluminescence in the peritoneal region was quantified as total photon counts/sec/cm^2/sr using Living Image 3.0 Software (Perkin Elmer).
as §1
GEMM better mimic the spontaneous development of cancers in an immune competent host than transplantable tumor lines. Twenty female C57BL/6 mice were co-injected IP with sleeping beauty vector and plasmids expressing carrying shp53, AKT, c-Myc and firefly luciferase genes, followed by electroporation (EP) to deliver these plasmid DNA into the peritoneal cavity cells wherein they integrate randomly into their genome. […]

[8] = system: ES2 cells; test: Seahorse assay (OCR, ECAR)
[9] = system: panel of cancer cell lines; test: MTT cytotoxicity, broad panel of cancer cell lines and normal cells (Fig 1B); conditions: 72 h

T1 sequence (Q16186 whole entry): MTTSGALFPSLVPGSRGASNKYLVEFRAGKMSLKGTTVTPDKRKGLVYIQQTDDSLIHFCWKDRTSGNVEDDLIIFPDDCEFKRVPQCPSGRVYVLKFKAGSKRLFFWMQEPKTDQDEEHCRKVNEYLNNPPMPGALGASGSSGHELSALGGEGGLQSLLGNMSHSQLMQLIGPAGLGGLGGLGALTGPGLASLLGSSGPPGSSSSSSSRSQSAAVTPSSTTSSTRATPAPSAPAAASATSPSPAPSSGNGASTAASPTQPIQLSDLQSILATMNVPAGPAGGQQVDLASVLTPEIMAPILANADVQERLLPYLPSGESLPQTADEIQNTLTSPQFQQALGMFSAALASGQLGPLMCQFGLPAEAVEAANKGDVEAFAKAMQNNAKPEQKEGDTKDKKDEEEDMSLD

SMILES: N#Cc1ccc(/C=C2/C(=O)/C(=C/c3ccc(C#N)cc3)C23CCNCC3)cc1 [Up284]
- IC50 [1]: 71 nM
- thermal stabilization of RPN13 [2]: stabilized
- % Drug Remaining, Plasma (Mouse EDTA) ([3]; 0 min): 100%
- % Drug Remaining, Plasma (Mouse EDTA) ([3]; 30 min): 84%
- % Drug Remaining, Plasma (Mouse EDTA) ([3]; 60 min): 94%
- degradation in murine plasma ([3]; after incubating for 1 hour): < 10%
- % Drug Remaining, Plasma (Human EDTA) ([4]; 0 min): 100%
- % Drug Remaining, Plasma (Human EDTA) ([4]; 30 min): 100%
- % Drug Remaining, Plasma (Human EDTA) ([4]; 60 min): 90%
- degradation in human plasma ([4]; after incubating for 1 hour): < 10%
- additional degradation in the presence of NADPH, mouse liver microsomes [5]: ~ 10%
- degradation in mouse liver microsomes without NADPH [5]: ~ 50%
- % Drug Remaining NADPH Neg, Mouse Liver Microsomes ([5]; 0 min): 100%
- % Drug Remaining NADPH Pos, Mouse Liver Microsomes ([5]; 0 min): 100%
- % Drug Remaining NADPH Neg, Mouse Liver Microsomes ([5]; 30 min): 60%
- % Drug Remaining NADPH Pos, Mouse Liver Microsomes ([5]; 30 min): 45%
- % Drug Remaining NADPH Neg, Mouse Liver Microsomes ([5]; 60 min): 51%
- % Drug Remaining NADPH Pos, Mouse Liver Microsomes ([5]; 60 min): 38%
- ES2-luc xenograft tumor burden (bioluminescence) vs vehicle ([6]; days 12 and 21, p = 0.0002): significantly reduced
- overall survival vs vehicle ([6]; p = 0.005): increased overall survival
- ascites [7]: did not develop appreciable ascites
- GEMM tumor burden vs vehicle ([7]; p = 0.002): significantly reduced tumor burden
- survival vs vehicle ([7]; p = 0.06): trend for prolonged survival
- proton leakage ([8]; ES2, 0.5 μM): did not impact
- oxygen consumption rate (OCR), basal and FCCP-stimulated, and ATP production ([8]; ES2, 0.5 μM, 12 h): significant decrease in OCR
- extracellular acidification rate (ECAR) ([8]; ES2, after 24 h treatment): trend for reduction
- cytotoxicity against normal cells [9]: relatively spared normal cells
- sensitivity of HCT116 cells regardless of Tp53 status [9]: similarly sensitive
- sensitivity of RPMI8226 and ANBL6 and bortezomib-resistant (-V10R) lines [9]: similarly very sensitive
